Measured values as given in ChEMBL document CHEMBL3885881, “DrugMatrix”.

Species on record: Rattus norvegicus
Assay: DrugMatrix - Regimen: Daily Repeat
Format: toxicity, organism-based, Sprague-Dawley
Parameters: regimen Daily Repeat, gender Male, age 6-8 weeks
Settings: in vivo, po, route oral GAVAGE, vehicle 100 % WATER; for ABSOLUTE BASOPHIL / ABSOLUTE EOSINOPHIL / ABSOLUTE LYMPHOCYTE / ABSOLUTE MONOCYTE / ABSOLUTE SEGMENTED NEUTROPHIL / BASOPHIL / EOSINOPHIL / ERYTHROCYTE COUNT / HEMATOCRIT / HEMOGLOBIN / LEUKOCYTE COUNT / LYMPHOCYTE / MEAN CORPUSCULAR HEMOGLOBIN / MEAN CORPUSCULAR HEMOGLOBIN CONCENTRATION / MEAN CORPUSCULAR VOLUME / MONOCYTE / NEUTROPHIL / NUCLEATED RED BLOOD CELLS / PLATELET COUNT: tissue Blood; for ALANINE AMINOTRANSFERASE / ALBUMIN / ALKALINE PHOSPHATASE / ASPARTATE AMINOTRANSFERASE / BLOOD UREA NITROGEN / CARBON DIOXIDE / CHLORIDE / CHOLESTEROL / CREATINE PHOSPHOKINASE / CREATININE / GLUCOSE / LACTATE DEHYDROGENASE / LIPASE / PHOSPHORUS / POTASSIUM / SODIUM / TOTAL BILIRUBIN / TOTAL PROTEIN / URIC ACID: tissue Plasma
[1] = 0 mg/kg, 72 h, dose level Control, time 3 day
[2] = 0 mg/kg, 120 h, dose level Control, time 5 day
[3] = 39 mg/kg, 72 h, dose level Low, time 3 day

C[C@]12Cc3c[nH]nc3C[C@@H]1CC[C@@H]1[C@@H]2CC[C@@]2(C)[C@H]1CC[C@]2(C)O [STANOZOLOL]
ABSOLUTE BASOPHIL [1]: 0 CELLS/uL
ABSOLUTE EOSINOPHIL [1]: 32.5 CELLS/uL
ABSOLUTE LYMPHOCYTE [1]: 9305.83 CELLS/uL
ABSOLUTE MONOCYTE [1]: 43.83 CELLS/uL
ABSOLUTE SEGMENTED NEUTROPHIL [1]: 817.83 CELLS/uL
BASOPHIL [1]: 0%
EOSINOPHIL [1]: 0.33%
ERYTHROCYTE COUNT [1]: 5.38 x10E6/uL
HEMATOCRIT [1]: 33.63%
HEMOGLOBIN [1]: 13.17 G/DL
LEUKOCYTE COUNT [1]: 10.2 x10E3/uL
LYMPHOCYTE [1]: 91.17%
MEAN CORPUSCULAR HEMOGLOBIN [1]: 24.5 pg
MEAN CORPUSCULAR HEMOGLOBIN CONCENTRATION [1]: 39.13 G/DL
MEAN CORPUSCULAR VOLUME [1]: 62.53 fL
MONOCYTE [1]: 0.5%
NEUTROPHIL [1]: 8%
NUCLEATED RED BLOOD CELLS [1]: 0.17 /100WBC
PLATELET COUNT [1]: 858 x10E3/uL
ALANINE AMINOTRANSFERASE [1]: 55.67 u/L
ALBUMIN [1]: 4.07 G/DL
ALKALINE PHOSPHATASE [1]: 337 u/L
ASPARTATE AMINOTRANSFERASE [1]: 84 u/L
BLOOD UREA NITROGEN [1]: 13.17 mg/dL
CARBON DIOXIDE [1]: 34.17 mmol/L
CHLORIDE [1]: 99.33 MEQ/L
CHOLESTEROL [1]: 78.83 mg/dL
CREATINE PHOSPHOKINASE [1]: 576.83 u/L
CREATININE [1]: 0.17 mg/dL
GLUCOSE [1]: 152.67 mg/dL
LACTATE DEHYDROGENASE [1]: 147.83 u/L
LIPASE [1]: 9.5 u/L
PHOSPHORUS [1]: 10.78 mg/dL
POTASSIUM [1]: 6.34 MEQ/L
SODIUM [1]: 144.12 MEQ/L
TOTAL BILIRUBIN [1]: 0.18 mg/dL
TOTAL PROTEIN [1]: 6.08 G/DL
URIC ACID [1]: 0.65 mg/dL
ABSOLUTE BASOPHIL [2]: 0 CELLS/uL
ABSOLUTE EOSINOPHIL [2]: 31.17 CELLS/uL
ABSOLUTE LYMPHOCYTE [2]: 7918.33 CELLS/uL
ABSOLUTE MONOCYTE [2]: 58.33 CELLS/uL
ABSOLUTE SEGMENTED NEUTROPHIL [2]: 725.5 CELLS/uL
BASOPHIL [2]: 0%
EOSINOPHIL [2]: 0.33%
ERYTHROCYTE COUNT [2]: 5.32 x10E6/uL
HEMATOCRIT [2]: 33.53%
HEMOGLOBIN [2]: 13.17 G/DL
LEUKOCYTE COUNT [2]: 8.73 x10E3/uL
LYMPHOCYTE [2]: 90.33%
MEAN CORPUSCULAR HEMOGLOBIN [2]: 24.82 pg
MEAN CORPUSCULAR HEMOGLOBIN CONCENTRATION [2]: 39.33 G/DL
MEAN CORPUSCULAR VOLUME [2]: 63.12 fL
MONOCYTE [2]: 0.67%
NEUTROPHIL [2]: 8.67%
NUCLEATED RED BLOOD CELLS [2]: 0 /100WBC
PLATELET COUNT [2]: 1144.83 x10E3/uL
ALANINE AMINOTRANSFERASE [2]: 60.5 u/L
ALBUMIN [2]: 3.97 G/DL
ALKALINE PHOSPHATASE [2]: 343.17 u/L
ASPARTATE AMINOTRANSFERASE [2]: 80.83 u/L
BLOOD UREA NITROGEN [2]: 15 mg/dL
CARBON DIOXIDE [2]: 31 mmol/L
CHLORIDE [2]: 99.75 MEQ/L
CHOLESTEROL [2]: 71.5 mg/dL
CREATINE PHOSPHOKINASE [2]: 237.17 u/L
CREATININE [2]: 0.17 mg/dL
GLUCOSE [2]: 137 mg/dL
LACTATE DEHYDROGENASE [2]: 146.17 u/L
LIPASE [2]: 11.5 u/L
PHOSPHORUS [2]: 10.13 mg/dL
POTASSIUM [2]: 6 MEQ/L
SODIUM [2]: 145 MEQ/L
TOTAL BILIRUBIN [2]: 0.13 mg/dL
TOTAL PROTEIN [2]: 5.82 G/DL
URIC ACID [2]: 0.62 mg/dL
ABSOLUTE BASOPHIL [3]: 0 CELLS/uL
ABSOLUTE EOSINOPHIL [3]: 60.33 CELLS/uL
ABSOLUTE LYMPHOCYTE [3]: 8653.33 CELLS/uL
ABSOLUTE MONOCYTE [3]: 60.33 CELLS/uL
ABSOLUTE SEGMENTED NEUTROPHIL [3]: 526 CELLS/uL
BASOPHIL [3]: 0%
EOSINOPHIL [3]: 0.67%
ERYTHROCYTE COUNT [3]: 5.9 x10E6/uL
HEMATOCRIT [3]: 35.57%
HEMOGLOBIN [3]: 13.63 G/DL
LEUKOCYTE COUNT [3]: 9.3 x10E3/uL
LYMPHOCYTE [3]: 93.33%
MEAN CORPUSCULAR HEMOGLOBIN [3]: 23.13 pg
MEAN CORPUSCULAR HEMOGLOBIN CONCENTRATION [3]: 38.33 G/DL
MEAN CORPUSCULAR VOLUME [3]: 60.33 fL
MONOCYTE [3]: 0.67%
NEUTROPHIL [3]: 5.33%
NUCLEATED RED BLOOD CELLS [3]: 0 /100WBC
PLATELET COUNT [3]: 1025.67 x10E3/uL
ALANINE AMINOTRANSFERASE [3]: 58 u/L
ALBUMIN [3]: 4.17 G/DL
ALKALINE PHOSPHATASE [3]: 448.33 u/L
ASPARTATE AMINOTRANSFERASE [3]: 81 u/L
BLOOD UREA NITROGEN [3]: 13.67 mg/dL
CARBON DIOXIDE [3]: 34.67 mmol/L
CHLORIDE [3]: 99.33 MEQ/L
CHOLESTEROL [3]: 57.33 mg/dL
CREATINE PHOSPHOKINASE [3]: 465.67 u/L
CREATININE [3]: 0.14 mg/dL
GLUCOSE [3]: 134.67 mg/dL
LACTATE DEHYDROGENASE [3]: 171.33 u/L
LIPASE [3]: 9 u/L
PHOSPHORUS [3]: 11.43 mg/dL
POTASSIUM [3]: 6.05 MEQ/L
SODIUM [3]: 145.03 MEQ/L
TOTAL BILIRUBIN [3]: 0.2 mg/dL
TOTAL PROTEIN [3]: 6.13 G/DL
URIC ACID [3]: 0.6 mg/dL
